# Source: article PMC7450938, “Prenatal to early postnatal neurotrophic treatment prevents Alzheimer-like behavior and pathology in mice” (Alzheimer's Research & Therapy, 2020)
# Legend:
# [1] = test system: Ts65Dn trisomic Down syndrome mouse model; details: Ts65Dn mice, prenatal to early postnatal treatment; cited from earlier work
# From the text: The prenatal to early postnatal period is highly susceptible to epigenomic dysregulation with implications for health. […] Stress and hormones, such as glucocorticoids, testosterone, and estradiol, mediate the development of the brain during critical prenatal and early postnatal periods.
# 3xTg-AD mice = test: Novel object recognition test; assay type: in vivo, mouse; details: 3xTg-AD offspring, 3-4 months; P021 diet 60 nmol/g E8-PND21; 20-min delay, 5-min test phase; 3xTg-Vh vs 3xTg-P021 P = 0.0007
# Experimental: Pregnant 3xTg-AD and wild-type (WT) mice were treated with compound P021 in mouse chow, or as control with vehicle feed from gestational day 8 (E8) till their offspring/pups reached PND21, at which point the offspring were separated from their mother and put on normal mouse chow (Fig. 1). There were four study groups of mice, as follows: offspring of WT treated with vehicle diet (WT-Vh, n = 10), offspring of WT treated with P021 diet (WT-P021, n = 17), offspring of 3xTg-AD treated with vehicle diet (3xTg-Vh, n = 12), and offspring of 3xTg-AD treated with P021 diet (3xTg-P021, n = 18). Elevated plus maze, novel object recognition test, and Morris water maze were carried out consecutively from postnatal day 90 with all of mice. About 50% (4 animals/group) of the female offspring (n = 7–8 animals/group) were sacrificed at 4 months of age and the remaining 50% (3–4 animals/group) at 22 months of age. […]
# The novel object recognition memory task has been used to evaluate hippocampus-dependent memory in rodents through an evaluation of the differences in the exploration time of novel and familiar objects. […] The object discrimination index (DI) during the test phase was calculated as DI = [(time spent exploring the new object − time spent exploring the old object)/(time spent exploring both old and new objects)] × 100%.
# [2] = no method and no reference printed for this sentence, next sentence ref 22, cited from earlier work
# Experimental: P021 is quite stable in artificial gastric juice (~ 90% during 30 min) and in artificial intestinal juice (> 95% during 120 min).
# Aβ plaques = test: Aβ immunofluorescence, amyloid plaques in brain sections; assay type: in vivo, mouse; details: 22-month-old 3xTg-AD mice, P021 diet E8-PND21
# Experimental: (§1) We treated 2- to 3-month-old pregnant 3xTg-AD and WT mothers with compound P021 in mouse chow, or with vehicle feed as control at E8 until their offspring/pups reached PND21, at which point the offspring were separated and put on standard mouse chow (Fig. 1). Treatment was administered as 60 nmol peptide/g formulated diet (Research Diets; New Brunswick, NJ, USA). The vehicle-treated control animals received the same diet but without the peptide. On average, each mouse consumed ~ 2.7 g diet/day.
# The complete right hemisphere was immersion-fixed in 4% paraformaldehyde in 0.1 M PBS for 24–48 h, followed by cryoprotection in a 30% sucrose solution at 4 °C overnight. Later, the 40-μm-thick sagittal sections were cut on a freezing microtome. […]
# Immunofluorescence staining was performed on free-floating sections, and every 12th brain section was chosen for densitometry and quantification. For immunohistochemical quantification, six brain sections of four animals per group were analyzed. All stainings for fluorescence-intensity quantification were carried out under identical conditions, including all tissue samples for a particular staining processed at the same time, and experimental and control sections photographed under identical settings. […]
# [3] = test system: PSD95, synapsin, synaptophysin, MAP2; test: Western blots of dendritic and synaptic markers in hippocampus; assay type: in vivo, mouse; details: 3xTg-AD mice
# Experimental: as §1
# The tissue from the left cerebral hemisphere from each mouse stored at− 80 °C was homogenized in a Teflon-glass homogenizer to generate 10% (w/v) homogenate. The pre-chilled homogenization buffer contained 50 mM Tris–HCl (pH 7.4), 8.5% sucrose, 2 mM EDTA, 2 mM EGTA, 10 mM β-mercaptoethanol plus the following protease and phosphatase inhibitors: 0.5 mM AEBSF, 10 μg/mL aprotinin, 10 μg/mL leupeptin, 4 μg/mL pepstatin, 5 mM benzamidine, 20 mM β-glycerophosphate, 50 mM sodium fluoride, 1 mM sodium orthovanadate, and 100 nM okadaic acid. Each homogenate was boiled in 2× Laemmli sample buffer for 5 min, and protein concentration was measured by PierceTM 660-nm protein assay (Thermo Scientific; Rockford, IL, USA).
# The samples were subjected to 10% SDS-PAGE and electro-transferred onto Immobilon-P membranes (EMD Millipore; Billerica, MA, USA). The blots were then probed with primary antibodies (Table 1) and developed with the corresponding HRP-conjugated secondary antibody and enhanced chemiluminescence (Pierce Biotechnology, Rockford, IL, USA). Densitometric quantification of protein bands in Western blots was analyzed using Multi Gauge version 3.0 software (FUJIFILM North America; Valhalla, NY, USA).
# [4] = 4 months, P021 diet E8-PND21, n = 3-4/group
substance,measurement,setting,value
"Ac-DGGL^AG-NH2 [P021, 4-mer CNTF small molecule peptide mimetic to which adamantylated glycine was added at the C-terminal]",developmental delay and cognitive impairment at adult age,[1],rescues developmental delay and at adult age cognitive impairment
same,discrimination index in the test phase,3xTg-AD mice,improved
same,stability in artificial gastric juice,[2]; during 30 min,~ 90%
same,stability in artificial intestinal juice,[2]; during 120 min,> 95%
same,plaque-occupied area (Aβ immunofluorescence),"Aβ plaques; one half of the brain, 6 sections per mouse, n = 4 mice",significantly decreased
same,amyloid plaques detected by Aβ antibody,"Aβ plaques; subiculum, piriform cortex, forebrain and hippocampus, vs 3xTg-Vh",markedly reduced
same,MAP2 deficit,[3]; [4],only the PSD 95 deficit was rescued
same,PSD95 deficit,[3]; [4],rescued
same,synapsin deficit,[3]; [4],only the PSD 95 deficit was rescued
same,synaptophysin deficit,[3]; [4],only the PSD 95 deficit was rescued
same,"levels of PSD95, synapsin, synaptophysin, and MAP2","[3]; 22 months, P021 diet E8-PND21, not significant",a trend for an increase
